“Also recorded” adds a separate entry of the source.
Tests used:
Assay type in all cases: physicochemical
[1] = Solid form characterisation (TGA/DSC, KF, XRPD, HPLC chemical and chiral purity); settings: initial, before stability test
Method: Differential Scanning Calorimetry (DSC). DSC was performed using a Mettler Toledo DSC^3+. The sample (1-5 mg) was weighed directly in a 40 μL hermetic aluminum pan with a pinhole and analyzed according to the parameters in Tables 41 and 42.
High Performance Liquid Chromatography (HPLC). HPLC was conducted using an Agilent 1220 Infinity LC or Agilent 1220 Infinity 2 LC equipped with diode array detector (DAD). Flow rate range of the instrument is 0.2-5.0 mL/min, operating pressure range is 0-600 bar, temperature range is 5° C. above ambient to 60° C., and wavelength range is 190-600 nm.
Karl Fischer (KF) Titration. KF titration for water determination was performed using a Mettler Toledo C20S Coulometric KF Titrator equipped with a current generator cell with a diaphragm, and a double-platinum-pin electrode. The range of detection of the instrument is 1 ppm to 5% water. Aquastar™
CombiCoulomat fritless reagent was used in both the anode and cathode compartments. Samples of approximately 0.03-0.10 g were dissolved in the anode compartment and titrated until the solution potential dropped below 100 mV. Hydranal 1 wt. % water standard was used for validation prior to sample analysis.
Simultaneous Thermogravimetric Analysis and Differential Scanning Calorimetry (TGA and DSC). TGA and DSC were performed on the same sample simultaneously using a Mettler Toledo TGA/DSC^3+. Protective and purge gas was nitrogen at a flowrate of 20-30 mL/min and 50-100 mL/min, respectively. The desired amount of sample (5-10 mg) was weighed directly in a hermetic aluminum pan with pinhole and analyzed according to the parameters below:
(§1) X-Ray Powder Diffraction (XRPD). XRPD was performed using a Rigaku MiniFlex 600 in reflection mode (i.e., Bragg-Brentano geometry). Samples were prepared on Si zero-return wafers.
XRPD was performed using a Bruker D8 Advance equipped with LYNXEYE detector in reflection mode (i.e., Bragg-Brentano geometry). Samples were prepared on Si zero-return wafers.

[2] = Physical stability by XRPD upon drying at 50° C. under vacuum and exposure to >95% RH; settings: for XRPD pattern Dry: after drying; for XRPD pattern Dry / XRPD pattern Humid / XRPD pattern Wet: Am = amorphous; for XRPD pattern Humid: after exposure to humidity; for XRPD pattern Wet: solid form of compound R-D1
Method: as §1
XRPD analysis was done in three stages. XRPD of the wet cake was done for all samples where solids were observed.
The solids were then exposed to >95% RH overnight. This humid environment was produced by placing a beaker of saturated potassium sulfate in water in a sealed container at RT. The materials exposed to these conditions were evaluated by XRPD, and their patterns were compared to those produced before.
The pattern FF-B was dried at 50° C. under vacuum for 3 h after filtration for further XRPD analysis. The solids were then exposed to >95% RH overnight. This humid environment was produced by placing a beaker of saturated potassium sulfate in water in a sealed container at RT. The materials exposed to these conditions were evaluated by XRPD, and their patterns were compared to those of the crystalline freebase along each step.

[3] = Dynamic vapor sorption (DVS) hygroscopicity; settings: for Hygroscopicity by DVS (up to 95% RH): mass change up to 95% RH
Method: Dynamic Vapor Sorption (DVS). DVS was performed using a Q5000SA. The sample (5-15 mg) was loaded into a metallic quartz sample pan, suspended from a microbalance, and exposed to a humidified stream of nitrogen gas. Weight changes were relative to a matching empty reference pan opposite the sample, suspended from the microbalance. One of two methods was used:
Method 1: The sample was held for a minimum of 10 min at each level and only progressed to the next humidity level if there was <0.002% change in weight between measurements (interval: 5 s) or 60 min had elapsed.

[4] = Stability at 40° C./75% RH for 1 week; settings: for chemical purity by HPLC after storage / chiral purity by HPLC after storage / XRPD after storage: 40° C. and 75% RH
Method: The humid environment was generated with saturated sodium chloride in water in a sealed container. After one week, the sample appeared pale-yellow upon inspection.
The one-week stability at 75% RH was also tested. In this experiment, 12 mg of the dried crystalline freebase from MeOH were weighted in a 4 mL vial and placed in a 20 mL vial set at 40° C. and 75% RH for 1 week. The humid environment was generated with saturated sodium chloride in water in a sealed container.
The one-week stability at 75% RH was also tested. In this experiment, 12 mg of the crystalline freebase from MeOH was weighted in a 4 mL vial and placed in a 20 mL vial set at 40° C. and 75% RH for 1 week. The humid environment was generated with saturated sodium chloride in water in a sealed container.

[5] = Thermal treatment of solid forms followed by XRPD; settings: heated, held, cooled down to RT
Method: Thermal Treatment of Amorphous Salt. […] The thermal events were measured by TGA/DSC and XRPD was used to study the resulting materials.
To study the effect of the temperature, the compound was subjected to a thermal treatment consisting of heating up the sample from RT up to 100° C. at a 10° C./min, and holding this temperature for 5 min to subsequently cool down to RT. The sample was collected and further analyzed with XRPD.
The sample was subjected to a thermal treatment consisting of heating the sample gradually (10° C./min) up to the first two thermal events shown by TGA/DSC analysis, i.e., 130 and 225° C. In each case, the temperature was held for 5 min, followed by cooling down to RT. The sample was collected and further analyzed with XRPD. […] Overall, the crystalline freebase Pattern FF-B obtained from acetone lost some crystallinity upon drying and exposure to humidity and heat.

[6] = Amorphous to crystalline studies (long-term slurries, vapor diffusion, slow evaporation); settings: Am = amorphous
Method: Long-Term Slurries. Long-term slurries were carried out for the purpose of producing crystalline forms. […] In this procedure, 30 mg of solid was added to a 2 mL vial containing a 6.3 mm stir bar. Then, 3 vol. of solvent was added, followed by the addition of more solvent in 5 vol. increments until it formed a flowable slurry. After 10 days, the solids were filtered and transferred to an XRPD plate for further analysis on the wet cake. Overall, crystalline patterns were not observed after one week. However, a crystalline solid was observed after stirring in MeOH for about six weeks.
Vapor-Diffusion Crystallization onto Solution and Solids. […] A suitable solvent was added to completely dissolve the solid, while producing a solution of slightly undersaturated concentration. The open vial was placed inside a 20 mL scintillation vial and 3 mL of antisolvent was added to the 20 mL vial to diffuse into the solution. The 20 mL vial was capped, sealed with parafilm, and kept undisturbed at RT.
Vapor diffusion onto solids was also started. The procedure is very similar, with the only difference that the active pharmaceutical ingredient (API) is not dissolved in a solvent; the vapor diffused directly onto the solid. The samples were monitored for visual changes in the solid (color, texture, size, etc.) over 2 months.
Slow Evaporation. […] The samples that were thin slurries were filtered with a […] syringe filter to obtain a clear solution. In some cases, cosolvent was added to obtain a solution. A needle was inserted in the cap septa to allow the solvents to evaporate slowly. The solutions were monitored frequently for precipitation.

For `COc1cc(-c2cn(C)c(=O)c3cnc(N4CCC4)cc23)cc(OC)c1CN1CCC(CN2CCC3(CC2)CN(c2ccc4c(c2)C(=O)N([C@@H]2CCC(=O)NC2=O)C4)C3)CC1.O=C(O)CC(O)(CC(=O)O)C(=O)O` [Citrate of Compound R-D1], the “Purity by HPLC (%) [chiral]” value [1] was “[99.05] %”, the “Purity by HPLC (%) chemical” value [1] was 99.46% and the “XRPD pattern Dry” value [2] was “Am”. For the same compound, the “XRPD pattern Humid” value [2] was “Am”, the “XRPD pattern Wet” value [2] was “Am” and the “HPLC chemical purity after DVS analysis” value [3] was 99.55%. The “XRPD after DVS analysis” value [3] was “did not show conversion to a crystalline pattern after performing the DVS analysis”, the “hygroscopicity according to the European Pharmacopeia standards (DVS)” value (shortened to “hygroscopicity according”) [3] was “very hygroscopic” and the “Hygroscopicity by DVS (up to 95% RH)” value [3] was over 25.55 wt. %. The “Purity by HPLC (%) After 1 week 75% RH chemical” value ([4]; 40° C./75% RH) was 99.12%.
With `COc1cc(-c2cn(C)c(=O)c3cnc(N4CCC4)cc23)cc(OC)c1CN1CCC(CN2CCC3(CC2)CN(c2ccc4c(c2)C(=O)N([C@@H]2CCC(=O)NC2=O)C4)C3)CC1` [Pattern FF-A] the “physical stability (XRPD) upon drying at 50° C. under vacuum and exposure to >95% RH” value [2] was “Reduction in the crystallinity”, the “HPLC chemical purity after DVS analysis” value [3] was 98.68% and the “XRPD after DVS analysis” value [3] was “new signal at 26=5.8°”. The “hygroscopicity according” value [3] was “hygroscopic”, the “XRPD after thermal treatment” value [5] was “loss of some crystallinity” and the “chemical purity by HPLC after storage” value [4] was 98.27%. The “chiral purity by HPLC after storage” value [4] was 94.55%.
In the case of `COc1cc(-c2cn(C)c(=O)c3cnc(N4CCC4)cc23)cc(OC)c1CN1CCC(CN2CCC3(CC2)CN(c2ccc4c(c2)C(=O)N([C@@H]2CCC(=O)NC2=O)C4)C3)CC1.O=C(O)CC(O)(CC(=O)O)C(=O)O` [citrate salt of compound R-D1], the “XRPD after thermal treatment” value [5] is reported as “None of these experiments resulted in crystalline solids”, the Pattern ([6]; antisolvent vapor diffusion onto solution, RT, solvent Benzyl alcohol, antisolvent Acetone) is reported as “Am” and the Pattern ([6]; antisolvent vapor diffusion onto solution, RT, solvent Benzyl alcohol, antisolvent EtOH) is reported as “Am”. For the same compound, the Pattern ([6]; antisolvent vapor diffusion onto solution, RT, solvent Benzyl alcohol, antisolvent MeOAc) was “Am”, the Pattern ([6]; antisolvent vapor diffusion onto solution, RT, solvent DMAC, antisolvent ACN) was “Am” and the Pattern ([6]; antisolvent vapor diffusion onto solution, RT, solvent DMAC, antisolvent Acetone) was “Am”. For the same compound, the Pattern ([6]; antisolvent vapor diffusion onto solution, RT, solvent DMAC, antisolvent DCM) was “Am”, the Pattern ([6]; antisolvent vapor diffusion onto solution, RT, solvent DMAC, antisolvent EtOAc) was “Am” and the Pattern ([6]; antisolvent vapor diffusion onto solution, RT, solvent DMAC, antisolvent IPA) was “Am”. For the same compound, the Pattern ([6]; antisolvent vapor diffusion onto solution, RT, solvent DMAC, antisolvent MEK) was “Am”, the Pattern ([6]; antisolvent vapor diffusion onto solution, RT, solvent DMSO, antisolvent Acetone) was “Am” and the Pattern ([6]; antisolvent vapor diffusion onto solution, RT, solvent DMSO, antisolvent DCM) was “Am”. For the same compound, the Pattern ([6]; antisolvent vapor diffusion onto solution, RT, solvent DMSO, antisolvent EtOH) was “Am”, the Pattern ([6]; antisolvent vapor diffusion onto solution, RT, solvent DMSO, antisolvent MEK) was “Am” and the Pattern ([6]; antisolvent vapor diffusion onto solution, RT, solvent DMSO, antisolvent MeOAc) was “Am”. The Pattern ([6]; vapor diffusion onto solids, over 2 months, antisolvent Chloroform) was “Am”, the Pattern ([6]; vapor diffusion onto solids, over 2 months, antisolvent Cyclohexane) was “Am” and the Pattern ([6]; vapor diffusion onto solids, over 2 months, antisolvent DCM) was “Am”. The Pattern ([6]; vapor diffusion onto solids, over 2 months, antisolvent Diethyl ether) was “Am”, the Pattern ([6]; vapor diffusion onto solids, over 2 months, antisolvent Hexanes) was “Am” and the Pattern ([6]; vapor diffusion onto solids, over 2 months, antisolvent MeOH) was “Am”. The Pattern ([6]; vapor diffusion onto solids, over 2 months, antisolvent Methyl cyclohexane) was “Am”, the Pattern ([6]; vapor diffusion onto solids, over 2 months, antisolvent MtBE) was “Am” and the XRPD after storage [4] was “did not show conversion to a crystalline form”.
With `COc1cc(-c2cn(C)c(=O)c3cnc(N4CCC4)cc23)cc(OC)c1CN1CCC(CN2CCC3(CC2)CN(c2ccc4c(c2)C(=O)N([C@@H]2CCC(=O)NC2=O)C4)C3)CC1` [pattern FF-B] the “Purity by HPLC (%) [chiral]” value [1] was “[96.56] %”, the “Purity by HPLC (%) chemical” value [1] was 98.85% and the “physical stability (XRPD) upon drying at 50° C. under vacuum and exposure to >95% RH” value [2] was “crystallinity of the compound decreased after drying the sample under vacuum; also recorded: Some of the crystallinity was regained after exposing the sample to high RH overnight”. The “XRPD pattern Dry” value [2] was “FF-B”, the “XRPD pattern Humid” value [2] was “FF-B” and the “XRPD pattern Wet” value [2] was “FF-B”. For the same compound, the “HPLC chemical purity after DVS analysis” value [3] was 99.06%, the “XRPD after DVS analysis” value [3] was “slight loss in crystallinity” and the “hygroscopicity according” value [3] was “hygroscopic”. For the same compound, the “Hygroscopicity by DVS (up to 95% RH)” value [3] was over 8.80 wt. %, the “XRPD after thermal treatment” value [5] was “decreased crystallinity after exposure to 130 °C” and the XRPD after storage [4] was “splitting of the signal at 5.3 and 13.7°”. For the same compound, the “chemical purity by HPLC after storage” value [4] was 98.56%, the “chiral purity by HPLC after storage” value [4] was 96.13% and the “Purity by HPLC (%) After 1 week 75% RH [chiral]” value ([4]; 40° C./75% RH) was “[96.13] %”. The “Purity by HPLC (%) After 1 week 75% RH chemical” value ([4]; 40° C./75% RH) was 98.56%.
